{"source": "paper PMC12472391", "about": "“Borylated Five-Membered Ring Iminosugars: Synthesis, Spectroscopic Analysis, and Biological Evaluation for Glycosidase Inhibition and Anticancer Properties for Application in Boron Neutron Capture Therapy (BNCT)—Part 1” (Pharmaceuticals, 2025)", "origin": "cited, not measured here", "settings_in_all_cases": "cited from earlier work", "key": {"aldose reductase": {"tested_on": "aldose reductase", "design": "method as in PMID 31557624"}, "α-D-glucosidase": {"tested_on": "α-D-glucosidase", "design": "method as in PMID 31557624"}, "[1]": {"target": "β-D-galactosidase (E. coli) (Escherichia coli, UniProt P00722)", "sequence (P00722 2-1024)": "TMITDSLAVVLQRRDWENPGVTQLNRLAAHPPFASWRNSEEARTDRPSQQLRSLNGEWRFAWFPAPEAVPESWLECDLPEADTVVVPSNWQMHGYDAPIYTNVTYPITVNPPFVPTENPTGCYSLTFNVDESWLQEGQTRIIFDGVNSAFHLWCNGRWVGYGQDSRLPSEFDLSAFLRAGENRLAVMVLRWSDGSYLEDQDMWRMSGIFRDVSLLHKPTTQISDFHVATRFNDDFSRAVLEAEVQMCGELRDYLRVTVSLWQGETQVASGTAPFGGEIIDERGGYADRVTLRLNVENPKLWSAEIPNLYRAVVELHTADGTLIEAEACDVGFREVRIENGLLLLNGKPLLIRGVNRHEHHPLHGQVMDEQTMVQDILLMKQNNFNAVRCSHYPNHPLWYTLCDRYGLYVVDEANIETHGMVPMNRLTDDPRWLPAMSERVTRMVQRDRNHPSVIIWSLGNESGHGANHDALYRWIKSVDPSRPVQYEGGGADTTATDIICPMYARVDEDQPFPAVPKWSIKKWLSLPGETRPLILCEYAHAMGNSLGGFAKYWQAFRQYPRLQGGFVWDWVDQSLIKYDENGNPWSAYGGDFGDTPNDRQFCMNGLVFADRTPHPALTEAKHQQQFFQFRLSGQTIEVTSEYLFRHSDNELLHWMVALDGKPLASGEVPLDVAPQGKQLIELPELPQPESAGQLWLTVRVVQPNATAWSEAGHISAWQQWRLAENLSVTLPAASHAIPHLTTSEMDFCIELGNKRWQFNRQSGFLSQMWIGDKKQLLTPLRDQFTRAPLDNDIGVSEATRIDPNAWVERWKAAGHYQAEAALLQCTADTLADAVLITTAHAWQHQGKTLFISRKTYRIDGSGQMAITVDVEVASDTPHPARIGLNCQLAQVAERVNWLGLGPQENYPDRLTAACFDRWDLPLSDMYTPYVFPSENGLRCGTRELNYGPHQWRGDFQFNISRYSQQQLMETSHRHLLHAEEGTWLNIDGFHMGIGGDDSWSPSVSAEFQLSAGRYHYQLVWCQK"}, "[2]": {"tested_on": "α-D-galactosidase (coffee bean)"}, "[3]": {"target": "T1, α-D-mannosidase (Jack bean) (Canavalia ensiformis, UniProt C0HJB3)", "T1 construct": "purchased Sigma", "T1 sequence (C0HJB3 1-981)": "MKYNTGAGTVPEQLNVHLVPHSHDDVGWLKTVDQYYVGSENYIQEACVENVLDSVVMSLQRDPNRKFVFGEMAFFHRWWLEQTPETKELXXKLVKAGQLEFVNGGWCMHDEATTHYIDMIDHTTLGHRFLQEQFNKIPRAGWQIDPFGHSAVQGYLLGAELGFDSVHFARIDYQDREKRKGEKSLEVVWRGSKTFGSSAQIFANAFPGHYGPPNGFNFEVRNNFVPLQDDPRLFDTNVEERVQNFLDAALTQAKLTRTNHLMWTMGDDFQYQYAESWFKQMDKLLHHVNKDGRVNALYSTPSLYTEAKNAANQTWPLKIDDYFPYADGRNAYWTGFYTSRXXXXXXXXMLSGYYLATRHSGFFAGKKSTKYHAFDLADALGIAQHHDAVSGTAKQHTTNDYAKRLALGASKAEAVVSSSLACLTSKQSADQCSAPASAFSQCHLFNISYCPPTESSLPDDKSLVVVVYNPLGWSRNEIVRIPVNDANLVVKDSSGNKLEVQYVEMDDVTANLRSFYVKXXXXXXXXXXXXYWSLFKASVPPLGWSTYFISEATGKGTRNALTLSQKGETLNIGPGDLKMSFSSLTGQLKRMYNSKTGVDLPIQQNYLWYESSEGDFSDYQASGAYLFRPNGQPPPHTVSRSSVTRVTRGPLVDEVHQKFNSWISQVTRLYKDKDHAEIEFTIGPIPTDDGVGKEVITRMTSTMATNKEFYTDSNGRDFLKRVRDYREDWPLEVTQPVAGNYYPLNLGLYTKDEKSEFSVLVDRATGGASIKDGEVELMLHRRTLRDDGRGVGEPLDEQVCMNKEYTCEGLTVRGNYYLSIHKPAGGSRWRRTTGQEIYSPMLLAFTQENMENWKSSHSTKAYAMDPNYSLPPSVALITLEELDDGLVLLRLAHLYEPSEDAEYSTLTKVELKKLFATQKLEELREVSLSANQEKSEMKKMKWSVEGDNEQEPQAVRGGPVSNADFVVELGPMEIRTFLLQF"}, "α-D-glucosidase (rice)": {"target": "α-D-glucosidase (rice) (Oryza sativa subsp. japonica, UniProt Q653V7)", "sequence (Q653V7 34-885)": "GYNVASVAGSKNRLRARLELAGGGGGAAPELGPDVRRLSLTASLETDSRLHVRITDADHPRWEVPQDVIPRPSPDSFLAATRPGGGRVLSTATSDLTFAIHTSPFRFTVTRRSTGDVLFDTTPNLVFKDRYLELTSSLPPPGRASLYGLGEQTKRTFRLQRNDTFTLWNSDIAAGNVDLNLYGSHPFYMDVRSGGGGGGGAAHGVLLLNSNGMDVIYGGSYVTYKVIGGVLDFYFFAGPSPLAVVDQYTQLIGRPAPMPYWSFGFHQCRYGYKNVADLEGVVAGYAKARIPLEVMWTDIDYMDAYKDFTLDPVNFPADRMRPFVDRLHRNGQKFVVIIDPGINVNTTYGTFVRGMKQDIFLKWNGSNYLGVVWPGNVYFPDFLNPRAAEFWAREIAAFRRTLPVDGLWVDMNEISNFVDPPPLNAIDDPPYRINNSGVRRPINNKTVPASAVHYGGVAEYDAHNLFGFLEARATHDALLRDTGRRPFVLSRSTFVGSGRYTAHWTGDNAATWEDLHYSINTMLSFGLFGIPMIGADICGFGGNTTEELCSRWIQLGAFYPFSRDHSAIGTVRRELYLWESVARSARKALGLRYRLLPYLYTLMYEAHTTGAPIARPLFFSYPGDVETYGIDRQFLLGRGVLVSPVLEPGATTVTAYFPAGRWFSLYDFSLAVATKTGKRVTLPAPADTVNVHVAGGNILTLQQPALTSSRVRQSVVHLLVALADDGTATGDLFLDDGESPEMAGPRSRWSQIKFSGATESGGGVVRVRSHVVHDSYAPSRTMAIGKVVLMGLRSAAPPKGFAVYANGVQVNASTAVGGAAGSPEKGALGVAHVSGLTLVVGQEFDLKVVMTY", "design": "method as in PMID 31944194"}, "[4]": {"tested_on": "α-D-glucosidase (rat intestinal maltase)", "design": "method as in PMID 31944194"}, "α-D-glucosidase (yeast)": {"target": "T2, α-D-glucosidase (yeast) (Saccharomyces cerevisiae, UniProt P53341)", "T2 construct": "purchased Sigma", "T2 sequence (P53341 whole entry)": "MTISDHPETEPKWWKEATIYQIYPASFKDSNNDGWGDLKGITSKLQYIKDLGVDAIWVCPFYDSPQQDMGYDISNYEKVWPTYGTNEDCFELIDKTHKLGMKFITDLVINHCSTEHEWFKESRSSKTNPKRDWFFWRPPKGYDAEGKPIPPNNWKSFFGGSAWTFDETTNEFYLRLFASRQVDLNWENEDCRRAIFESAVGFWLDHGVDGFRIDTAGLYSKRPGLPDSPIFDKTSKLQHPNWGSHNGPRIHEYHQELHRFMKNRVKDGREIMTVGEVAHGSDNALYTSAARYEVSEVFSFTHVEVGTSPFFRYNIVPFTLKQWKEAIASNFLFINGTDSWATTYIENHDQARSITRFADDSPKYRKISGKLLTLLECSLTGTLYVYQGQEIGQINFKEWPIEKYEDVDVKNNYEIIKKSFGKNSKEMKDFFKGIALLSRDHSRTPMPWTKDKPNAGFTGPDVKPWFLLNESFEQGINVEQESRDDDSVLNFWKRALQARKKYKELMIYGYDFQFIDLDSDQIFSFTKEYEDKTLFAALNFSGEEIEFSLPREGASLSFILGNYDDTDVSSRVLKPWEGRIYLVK", "design": "method as in PMID 31944194"}, "β-D-glucosidase (almond)": {"tested_on": "β-D-glucosidase (almond)", "design": "method as in PMID 31944194"}, "[5]": {"tested_on": "β-D-glucosidase (bovine liver)", "design": "method as in PMID 31944194"}, "[6]": {"target": "β-D-glucosidase (human lysosome) (Homo sapiens, UniProt P04062)", "sequence (P04062 40-536)": "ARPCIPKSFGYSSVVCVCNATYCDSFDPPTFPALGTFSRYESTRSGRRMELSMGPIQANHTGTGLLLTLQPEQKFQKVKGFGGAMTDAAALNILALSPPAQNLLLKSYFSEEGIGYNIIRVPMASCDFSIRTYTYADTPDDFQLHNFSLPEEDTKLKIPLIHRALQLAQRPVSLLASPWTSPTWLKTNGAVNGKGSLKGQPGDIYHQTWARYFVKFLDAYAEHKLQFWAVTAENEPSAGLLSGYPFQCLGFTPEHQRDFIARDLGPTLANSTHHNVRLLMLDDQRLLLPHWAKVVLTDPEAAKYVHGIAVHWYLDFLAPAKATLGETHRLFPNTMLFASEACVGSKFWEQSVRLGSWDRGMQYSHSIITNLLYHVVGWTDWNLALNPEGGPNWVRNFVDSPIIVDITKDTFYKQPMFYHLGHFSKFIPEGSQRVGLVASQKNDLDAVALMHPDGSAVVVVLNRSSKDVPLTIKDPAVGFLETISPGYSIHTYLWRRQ", "design": "method as in PMID 31944194"}, "[7]": {"tested_on": "α-D-galactosidase (coffee bean)", "design": "method as in PMID 31944194"}, "[8]": {"target": "T3, β-D-galactosidase (bovine liver) (Bos taurus, UniProt Q58D55)", "T3 sequence (Q58D55 28-653)": "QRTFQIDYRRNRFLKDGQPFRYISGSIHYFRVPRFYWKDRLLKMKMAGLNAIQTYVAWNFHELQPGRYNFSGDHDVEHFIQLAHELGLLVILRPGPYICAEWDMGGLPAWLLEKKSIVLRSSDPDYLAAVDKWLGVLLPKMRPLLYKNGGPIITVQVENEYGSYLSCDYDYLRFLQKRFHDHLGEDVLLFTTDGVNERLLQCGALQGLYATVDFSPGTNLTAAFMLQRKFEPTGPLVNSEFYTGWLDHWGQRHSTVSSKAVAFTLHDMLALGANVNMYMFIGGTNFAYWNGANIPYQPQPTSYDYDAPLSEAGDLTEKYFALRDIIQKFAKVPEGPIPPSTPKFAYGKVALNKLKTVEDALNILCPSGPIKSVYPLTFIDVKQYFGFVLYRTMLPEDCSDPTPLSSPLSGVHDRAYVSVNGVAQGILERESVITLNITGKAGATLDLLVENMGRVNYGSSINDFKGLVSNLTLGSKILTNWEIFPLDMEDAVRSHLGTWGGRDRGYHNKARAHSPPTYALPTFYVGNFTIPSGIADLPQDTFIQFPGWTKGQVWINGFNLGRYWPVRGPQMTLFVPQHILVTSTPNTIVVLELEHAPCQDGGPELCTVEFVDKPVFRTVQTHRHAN", "design": "method as in PMID 31944194"}, "[9]": {"target": "T1, α-D-mannosidase (Jack bean)", "design": "method as in PMID 31944194"}, "β-D-mannosidase (snail)": {"tested_on": "β-D-mannosidase (snail)", "design": "method as in PMID 31944194"}, "[10]": {"tested_on": "α-L-fucosidase (bovine kidney)", "design": "method as in PMID 31944194"}, "[11]": {"tested_on": "trehalase (porcine kidney)", "design": "method as in PMID 31944194"}, "[12]": {"target": "T4, β-D-glucuronidase (E. coli) (Escherichia coli, UniProt P05804)", "T4 construct": "purchased Sigma-Aldrich Co", "T4 sequence (P05804 whole entry)": "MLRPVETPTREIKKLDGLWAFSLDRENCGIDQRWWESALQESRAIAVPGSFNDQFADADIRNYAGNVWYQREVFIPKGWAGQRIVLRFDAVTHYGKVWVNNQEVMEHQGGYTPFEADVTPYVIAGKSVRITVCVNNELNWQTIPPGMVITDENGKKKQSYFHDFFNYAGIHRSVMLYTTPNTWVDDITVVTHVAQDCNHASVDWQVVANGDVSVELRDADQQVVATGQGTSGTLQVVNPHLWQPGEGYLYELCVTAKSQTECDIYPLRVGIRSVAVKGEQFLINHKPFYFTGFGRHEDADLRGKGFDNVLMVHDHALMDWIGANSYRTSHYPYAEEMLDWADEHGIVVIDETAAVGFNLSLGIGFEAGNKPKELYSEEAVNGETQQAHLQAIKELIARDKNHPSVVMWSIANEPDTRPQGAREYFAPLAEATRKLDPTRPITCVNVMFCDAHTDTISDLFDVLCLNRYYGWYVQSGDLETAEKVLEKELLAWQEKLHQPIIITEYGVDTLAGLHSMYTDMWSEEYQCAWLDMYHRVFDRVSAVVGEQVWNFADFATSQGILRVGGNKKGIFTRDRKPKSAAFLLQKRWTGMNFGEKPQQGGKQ", "design": "method as in PMID 31944194"}, "[13]": {"tested_on": "α-L-rhamnosidase (P. decumbens)", "design": "method as in PMID 31944194"}, "[14]": {"tested_on": "amyloglucosidase (A. niger)", "design": "method as in PMID 31944194"}, "[15]": {"tested_on": "α-D-mannosidase (lysosomal acidic)", "design": "method as in PMID 8457203"}, "[16]": {"tested_on": "α-D-mannosidase (neutral)", "design": "method as in PMID 8457203"}, "[17]": {"tested_on": "α-D-mannosidase (Golgi II)", "design": "method as in PMID 8457203"}, "[18]": {"target": "fruit fly lysosomal acidic α-D-mannosidase", "design": "method as in PMID 29323461"}, "[19]": {"target": "fruit fly Golgi II α-D-mannosidase", "design": "method as in PMID 29323461"}, "α-L-fucosidase": {"tested_on": "α-L-fucosidase", "design": "method as in PMID 2706004"}, "[20]": {"tested_on": "α-D-mannosidase (Golgi II)", "design": "method as in PMID 2706004"}, "[21]": {"tested_on": "α-D-mannosidase (lysosomal acidic)", "design": "method as in PMID 2706004"}, "β-D-mannosidase": {"tested_on": "β-D-mannosidase", "design": "method as in PMID 2706004"}, "[22]": {"tested_on": "β-D-N-acetylhexosaminidase", "design": "method as in PMID 2706004"}}, "note": "Counter-ions that a name gives are not always drawn. Like-named read-outs stand apart in the source and are kept apart here."}
{"smiles": "OC[C@@H](O)[C@H]1[C@H](O)[C@@H](O)CN1Cc1ccccc1", "note": "[N-Benzyl-1,4-dideoxy-1,4-imino-D-galactitol]", "values": [{"measurement": "aldose reductase inhibition", "setting": "aldose reductase", "value": 32.6, "unit": "%"}, {"measurement": "α-D-glucosidase inhibition", "setting": "α-D-glucosidase", "value": 93.2, "unit": "%"}, {"measurement": "IC50", "setting": "α-D-glucosidase; read-out: IC50 towards α-D-glucosidase", "value": 40.6, "unit": "µM"}]}
{"smiles": "Cl.OC[C@@H](O)[C@H]1[C@H](O)[C@H](O)CN1Cc1ccccc1B(O)O", "note": "[N-(2-Methylphenylboronic acid)-1,4-dideoxy-1,4-imino-D-talitol.HCl]", "values": [{"measurement": "β-D-galactosidase (E. coli) inhibition", "setting": "[1]", "value": "β-D-galactosidase (E. coli) (44–55%)"}]}
{"smiles": "OC[C@@H](O)[C@H]1[C@H](O)[C@H](O)CN1Cc1ccccc1", "note": "[N-Benzyl-1,4-dideoxy-1,4-imino-D-talitol.HCl]", "values": [{"measurement": "β-D-galactosidase (E. coli) inhibition", "setting": "[1]", "value": "little inhibition"}, {"measurement": "α-D-galactosidase (coffee bean) inhibition", "setting": "[2]", "value": "little inhibition"}, {"measurement": "α-D-mannosidase (Jack bean) inhibition", "setting": "[3]", "value": "little inhibition"}]}
{"smiles": "OC[C@@H](O)[C@@H]1[C@H](O)[C@H](O)CN1Cc1ccccc1", "note": "[N-Benzyl-1,4-dideoxy-1,4-imino-D-mannitol.HCl]", "values": [{"measurement": "α-D-glucosidase (rice) inhibition", "setting": "α-D-glucosidase (rice)", "value": 34.2, "unit": "%"}, {"measurement": "α-D-glucosidase (rat intestinal maltase) inhibition", "setting": "[4]", "value": 16.6, "unit": "%"}, {"measurement": "α-D-glucosidase (yeast) inhibition", "setting": "α-D-glucosidase (yeast)", "value": 6.5, "unit": "%"}, {"measurement": "β-D-glucosidase (almond) inhibition", "setting": "β-D-glucosidase (almond)", "value": 6.1, "unit": "%"}, {"measurement": "β-D-glucosidase (bovine liver) inhibition", "setting": "[5]", "value": 9.5, "unit": "%"}, {"measurement": "β-D-glucosidase (human lysosome) inhibition", "setting": "[6]", "value": 4.7, "unit": "%"}, {"measurement": "α-D-galactosidase (coffee bean) inhibition", "setting": "[7]", "value": 8.8, "unit": "%"}, {"measurement": "β-D-galactosidase (bovine liver) inhibition", "setting": "[8]", "value": 7.9, "unit": "%"}, {"measurement": "α-D-mannosidase (Jack bean) inhibition", "setting": "[9]", "value": 27, "unit": "%"}, {"measurement": "β-D-mannosidase (snail) inhibition", "setting": "β-D-mannosidase (snail)", "value": 4.4, "unit": "%"}, {"measurement": "α-L-fucosidase (bovine kidney) inhibition", "setting": "[10]", "value": 8.4, "unit": "%"}, {"measurement": "trehalase (porcine kidney) inhibition", "setting": "[11]", "value": 0, "unit": "%"}, {"measurement": "β-D-glucuronidase (E. coli) inhibition", "setting": "[12]", "value": 9.8, "unit": "%"}, {"measurement": "α-L-rhamnosidase (P. decumbens) inhibition", "setting": "[13]", "value": 11.5, "unit": "%"}, {"measurement": "amyloglucosidase (A. niger) inhibition", "setting": "[14]", "value": 11.4, "unit": "%"}, {"measurement": "α-D-mannosidase lysosomal acidic inhibition", "setting": "[15]", "value": 34, "unit": "%"}, {"measurement": "α-D-mannosidase neutral inhibition", "setting": "[16]", "value": 44, "unit": "%"}, {"measurement": "α-D-mannosidase Golgi II inhibition", "setting": "[17]", "value": 72, "unit": "%"}, {"measurement": "IC50", "setting": "[18]", "value": 1500, "unit": "µM"}, {"measurement": "IC50", "setting": "[19]", "value": 690, "unit": "µM"}]}
{"smiles": "OC[C@@H](O)[C@@H]1[C@@H](O)[C@@H](O)CN1Cc1ccccc1", "note": "[N-Benzyl-1,4-dideoxy-1,4-imino-D-allitol]", "values": [{"measurement": "α-L-fucosidase inhibition", "setting": "α-L-fucosidase", "value": "α-L-fucosidase (76%)"}, {"measurement": "α-D-mannosidase Golgi II inhibition", "setting": "[20]", "value": 11, "unit": "%"}, {"measurement": "α-D-mannosidase lysosomal acidic inhibition", "setting": "[21]", "value": 7, "unit": "%"}, {"measurement": "β-D-mannosidase inhibition", "setting": "β-D-mannosidase", "value": 0, "unit": "%"}, {"measurement": "β-D-N-acetylhexosaminidase inhibition", "setting": "[22]", "value": 35, "unit": "%"}]}
